Results as given in patent US20030073850A1, “4-Imidazole derivatives of benzyl and restricted benzyl sulfonamides, sulfamides, ureas, carbamates, and amides and their use” (priority 1998, published 2003).
pKi: −log10 of the molar value.

How the values were obtained:
[1] = molecular target: T1, α1A (rat submaxillary gland) (Rattus norvegicus, UniProt P43140); test: Radioligand binding, [3H]-prazosin, α1A
T1 construct: α1A (rat submaxillary gland); from tissue; host or cells: rat submaxillary gland
T1 sequence (P43140 1-466): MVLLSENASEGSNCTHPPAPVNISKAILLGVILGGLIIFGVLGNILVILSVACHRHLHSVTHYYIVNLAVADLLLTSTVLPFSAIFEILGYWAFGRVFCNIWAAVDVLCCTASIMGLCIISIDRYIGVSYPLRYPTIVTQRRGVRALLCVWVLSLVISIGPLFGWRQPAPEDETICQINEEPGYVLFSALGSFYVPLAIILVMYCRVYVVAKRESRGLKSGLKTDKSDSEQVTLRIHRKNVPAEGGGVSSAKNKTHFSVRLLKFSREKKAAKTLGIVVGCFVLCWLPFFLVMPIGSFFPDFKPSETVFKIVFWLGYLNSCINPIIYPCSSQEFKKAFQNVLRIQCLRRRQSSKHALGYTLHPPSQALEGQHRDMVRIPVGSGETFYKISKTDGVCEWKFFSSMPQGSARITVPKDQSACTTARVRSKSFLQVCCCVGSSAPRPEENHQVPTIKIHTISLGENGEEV
In short: (§1)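 [3H]-prazosin radioligand displacement; α1A from rat submaxillary gland tissue, α1b hamster and α1d rat receptors each expressed in mouse fibroblasts.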

[2] = molecular target: T2, α1b (hamster receptor expressed in mouse fibroblasts) (Mesocricetus auratus, UniProt P18841); test: Radioligand binding, [3H]-prazosin, α1b; settings: hamster receptor expressed in mouse fibroblasts, [3H]-prazosin; read-out: Radioligand Binding Ki α1b (Hamster)
T2 construct: expressed in transfected cells; host or cells: mouse fibroblasts
T2 sequence (P18841 1-515): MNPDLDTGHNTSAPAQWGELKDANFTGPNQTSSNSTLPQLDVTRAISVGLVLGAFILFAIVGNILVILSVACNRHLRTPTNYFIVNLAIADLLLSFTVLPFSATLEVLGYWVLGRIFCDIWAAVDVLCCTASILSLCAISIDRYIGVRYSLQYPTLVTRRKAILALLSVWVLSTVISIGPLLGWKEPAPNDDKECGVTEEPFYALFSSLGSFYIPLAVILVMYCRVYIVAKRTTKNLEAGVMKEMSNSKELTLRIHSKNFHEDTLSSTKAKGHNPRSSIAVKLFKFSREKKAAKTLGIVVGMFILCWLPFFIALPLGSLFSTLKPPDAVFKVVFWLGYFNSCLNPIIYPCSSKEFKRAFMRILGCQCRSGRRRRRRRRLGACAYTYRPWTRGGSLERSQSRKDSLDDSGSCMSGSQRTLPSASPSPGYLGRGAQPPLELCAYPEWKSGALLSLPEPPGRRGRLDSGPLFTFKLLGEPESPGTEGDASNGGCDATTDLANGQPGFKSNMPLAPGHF
In short: as §1

α1A (rabbit urethra) = molecular target: T3, α1A (rabbit urethra) (Oryctolagus cuniculus, UniProt O02824); test: Agonist tissue response, contraction of rabbit urethra; format: biochemical; settings: values without asterisk, read-out: Agonist Tissue Response (pD2) α1A (rab ureth) (converted)
T3 construct: tested for α1A functional activity using rabbit urethra; from tissue; host or cells: rabbit urethra (female New Zealand white rabbits)
T3 sequence (O02824 1-466): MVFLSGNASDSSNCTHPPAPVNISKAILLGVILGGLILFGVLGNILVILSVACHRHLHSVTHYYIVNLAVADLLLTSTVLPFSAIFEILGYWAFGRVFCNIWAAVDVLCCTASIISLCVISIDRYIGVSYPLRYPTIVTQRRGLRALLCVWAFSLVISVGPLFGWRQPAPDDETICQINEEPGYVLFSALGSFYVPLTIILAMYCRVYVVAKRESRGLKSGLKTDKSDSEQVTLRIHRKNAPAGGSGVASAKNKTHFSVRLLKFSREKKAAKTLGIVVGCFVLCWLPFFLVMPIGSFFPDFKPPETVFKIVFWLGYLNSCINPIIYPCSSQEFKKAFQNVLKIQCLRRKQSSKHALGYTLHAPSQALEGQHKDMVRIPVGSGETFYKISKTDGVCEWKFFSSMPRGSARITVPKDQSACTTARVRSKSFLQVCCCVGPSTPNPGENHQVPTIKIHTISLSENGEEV
Method: Most of the compounds were tested for α1A functional activity using rabbit urethra as follows. Female New Zealand white rabbits (2.0-3.5 Kg) were sedated with CO2 and decapitated. […] Subsequent experimental conditions were as described above for the other tissues. Agonist concentration response curves were cumulative except for the vas deferens assay in which the transient response made such measurements impractical.

α1B (rat spleen) = molecular target: T4, α1B (rat spleen) (Rattus norvegicus, UniProt P15823); test: Agonist tissue response, contraction of rat spleen; format: biochemical; settings: read-out: Agonist Tissue Response (pD2) α1B (rat spleen) (converted)
T4 construct: α1B (rat spleen) and α1D (rat aorta) receptors; from tissue; host or cells: rat spleen
T4 sequence (P15823 1-515): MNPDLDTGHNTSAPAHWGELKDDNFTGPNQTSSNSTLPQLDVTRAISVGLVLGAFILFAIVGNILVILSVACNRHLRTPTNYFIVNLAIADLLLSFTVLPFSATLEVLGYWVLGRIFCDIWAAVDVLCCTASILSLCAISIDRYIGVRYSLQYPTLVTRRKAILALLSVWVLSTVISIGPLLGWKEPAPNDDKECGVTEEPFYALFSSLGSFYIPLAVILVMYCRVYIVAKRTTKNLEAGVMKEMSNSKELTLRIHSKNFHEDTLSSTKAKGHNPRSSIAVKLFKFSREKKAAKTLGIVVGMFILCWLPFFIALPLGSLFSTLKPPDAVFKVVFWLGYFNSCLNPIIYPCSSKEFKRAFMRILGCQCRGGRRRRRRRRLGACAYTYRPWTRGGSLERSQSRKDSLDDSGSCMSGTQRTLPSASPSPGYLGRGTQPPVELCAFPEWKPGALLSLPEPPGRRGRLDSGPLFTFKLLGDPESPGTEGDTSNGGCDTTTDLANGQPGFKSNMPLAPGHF

- pKi [1]: 6.74
- pKi [2]: 5.00
- EC50 (α1A (rabbit urethra)): 1.38 µM
- EC50 (α1B (rat spleen)): 28.2 µM
Structure (SMILES): CCS(=O)(=O)Nc1cccc2c1OCCC2c1c[nH]cn1 (single isomer, unassigned; (+)) [Example 95, (+) N-[4-(1H-imidazol-4-yl)-3,4-dihydro-2H-chromen-8-yl]ethanesulfonamide]
